US11357752B2, “Carolacton and derivatives thereof for use in the treatment of cell proliferation disorders” (Helmholtz-Zentrum für Infektionsforschung GmbH, priority 2017, dated 2022)
Converted amounts (≈) assume the structure as drawn.

Key:
E. coli ToIC = test: Minimum inhibition concentration (MIC); assay type: cell-based; conditions: Escherichia coli, read-out: minimum inhibition concentration (MIC)
From the text: First, the minimum inhibition concentration (MIC) of carolacton on E. coli ToIC strain has been determined. We started to develop the resistant mutants on CASO agar plates supplemented with 4× the MIC concentration of carolacton as selection pressure. Different numbers of E. coli ToIC cells from 1×10^7 to 10^9 were spread on caso agar plate with carolacton, respectively. After 7 days, E. coli ToIC colonies, which were resistant to carolacton, started to form on the agar plates. The mutants picked were inoculated in liquid MHB medium supplemented with carolacton.

S. mutans ΔfoID biofilms = test: S. mutans biofilm viability assay, foID deletion mutant; assay type: cell-based, Streptococcus mutans; conditions: 2.5 μg/ml carolacton
Method: According to Reck et al., 2011, S. mutans biofilms were grown in THBY+0.5% (w/v) sucrose in the presence of 2.5 μg/ml carolacton (cf. SI Methods). Cell viability was determined by staining of 20 h-old S. mutans biofilms with the LIVE/DEAD Viability Kit (Invitrogen) and by measuring fluorescence with a Victor^3 multilabel counter (Perkin-Elmer). Subsequently, the green/red fluorescence ratio was calculated and the relative inhibition of the treated biofilms determined in comparison to the untreated control.
For determination of Carolacton-induced cell death of S. mutans biofilms, o/n cultures of S. mutans were diluted to an OD600 of 0.01 in THBY+0.5% (w/v) sucrose. 10 μl of a Carolacton solution (2.5 μg/ml and 0.25 μg/ml in methanol) was pipetted into the wells of black a 96-well polystyrene Nunc MicroWell plates with transparent bottoms (ThermoFisher); control wells contained 10 μl of methanol. […]
The viability of S. mutans biofilm cells was assayed by staining with the commercially available Live/Dead staining kit (Invitrogen). […] Green and red fluorescence values of stained cells were measured using a Victor^3 fluorescence plate reader (Perkin-Elmer). The green/red ratio of treated and untreated cells was calculated and the relative cell death within Carolacton-treated biofilms determined relative to the untreated controls (Reck et al., 2011).

CO[C@H](CC(=O)O)[C@@H](C)C(=O)[C@H](C)/C=C(\C)[C@H]1OC(=O)[C@H](O)[C@H](O)/C=C/[C@H](C)CCC[C@@H]1C [Carolacton, carolacton]
MIC (E. coli ToIC): 0.125 µg/mL (≈ 0.267 µM)
sensitivity of biofilms to carolacton treatment (S. mutans ΔfoID biofilms): fully insensitive
